Reference: patent publication US7300946B2, “N-(substituted arylmethyl)-4-(disubstituted methyl) piperidines and pyridines” (Bayer CropScience AG, priority 2002, dated 2007)

System: tobacco budworm (Heliothis virescens [Fabricius])
Experiment: surface-treated diet test against the tobacco budworm
Assay type: in vivo
Conditions: tobacco budworm second instar larvae, 0.25 millimoles of candidate insecticide on the surface of the diet, five-day exposure; for Percent Mortality: compared to total number of insects infested; for Percent Growth Inhibition: inhibition of insect weight relative to untreated controls
Protocol: Candidate insecticides were evaluated for activity against the tobacco budworm (Heliothis virescens [Fabricius]) in a surface-treated diet test.
In this test one mL of molten (65–70° C.) wheat germ-based artificial diet was pipetted into each well of a four by six (24 well) multi-well plate (ID# 430345-15.5 mm dia.×17.6 mm deep; Corning Costar Corp., One Alewife Center, Cambridge, Mass. 02140). The diet was allowed to cool to ambient temperature before treatment with candidate insecticide.
For a determination of insecticidal activity, solutions of the candidate insecticides were prepared for testing using a Packard 204DT Multiprobe® Robotic System (Packard Instrument Company, 800 Research Parkway, Meriden, Conn. 06450), in which the robot first diluted a standard 50 millimolar DMSO solution of candidate insecticide with a 1:1 water/acetone solution (V/V) in a ratio of 1:7 stock solution to water/acetone. The robot subsequently pipetted 40 microliters of the so-prepared solution onto the surface of the diet in each of three wells in the 24 multi-well plate. The process was repeated with solutions of seven other candidate insecticides. Once treated, the contents of the multi-well plate were allowed to dry, leaving 0.25 millimoles of candidate insecticide on the surface of the diet, or a concentration of 0.25 millimolar. Appropriate untreated controls containing only DMSO on the diet surface were also included in this test. […]
In each well of the test plate was placed one second instar tobacco budworm larvea, each weighing approximately five milligrams. After the larvae were placed in each well, the plate was sealed with clear polyfilm adhesive tape. The tape over each well was perforated to ensure an adequate air supply. The plates were then held in a growth chamber at 25° C. and 60% relative humidity for five days (light 14 hours/day).
After the five-day exposure period insecticidal activity for each rate of application of candidate insecticide was assessed as percent inhibition of insect weight relative to the weight of insects from untreated controls, and percent mortality when compared to the total number of insects infested.
The test compounds of formula I are identified by numbers that correspond to those in Table 1.
These tests were conducted with 0.25 millimoles of candidate insecticide on the surface of the diet.

Row | Compound | Percent Mortality (surface-treated diet) | Percent Growth Inhibition (surface-treated diet) | Percent Mortality | Percent Growth Inhibition
1 | CN(C)C(=O)Nc1ccc(CN2CCC(C(OC(=O)Nc3cc(F)cc(F)c3)c3ccc(C(F)(F)F)cc3)CC2)cc1 (centres unmarked) [Compound 519] | 17% | 93% |  | 
2 | CCON=Cc1ccc(CN2CCC(C(OC(=O)Nc3ccc(F)c(F)c3)c3ccc(C(F)(F)F)cc3)CC2)cc1 (centres unmarked) [Compound 196] | 100% | 100% |  | 
3 | FC(F)(F)c1ccc(C(=C2CCN(Cc3ccc(OC4=NCCCN4)cc3)CC2)c2ccc(C(F)(F)F)cc2)cc1 [Compound 823] |  |  | 67% | 100%
4 | CC(C)OC(=O)Nc1ccc(CN2CCC(C(OC(=O)Nc3ccc(Cl)cc3)c3ccc(F)cc3)CC2)cc1 (centres unmarked) [Compound 503] | 100% | 100% |  | 
5 | Cn1nnc(-c2ccc(CN3CCC(C(OC(=O)Nc4cccc(Cl)c4)c4ccc(OC(F)(F)F)cc4)CC3)cc2)n1 (centres unmarked) [Compound 263] | 100% | 100% |  | 
6 | CCCOc1ccc(CN2CCC(C(OC(=O)Nc3ccc(Cl)cc3)c3ccc(Cl)c(Cl)c3)CC2)cc1 (centres unmarked) [Compound 480] | 100% | 100% |  | 
7 | CC(C)NC(=O)OC(c1ccc(C(F)(F)F)cc1)C1CC[N+]([O-])(Cc2ccc(Oc3ccccn3)cc2)CC1 (centres unmarked) [Compound 785] |  |  | 100% | 100%
8 | CC(=O)Oc1ccc(CN2CCC(=C(c3ccc(C(F)(F)F)cc3)c3ccc(C(F)(F)F)cc3)CC2)cc1 [Compound 788] |  |  | 33% | 87%
9 | FC(F)(F)c1ccc(C(OC(=S)Nc2ccc(Cl)cc2)C2CCN(Cc3ccc(Oc4ccccn4)cc3)CC2)cc1 (centres unmarked) [Compound 667] | 100% | 100% |  | 
10 | N#Cc1ccc(Oc2ccc(CN3CCC(C(OC(=O)Nc4cc(F)cc(F)c4)c4ccc(C(F)(F)F)cc4)CC3)cc2)nc1 (centres unmarked) [Compound 688] | 100% | 100% |  | 
11 | FC(F)(F)c1ccc(C(=C2CC3CCCC(C2)N3Cc2ccc(Oc3ccccn3)cc2)c2ccc(C(F)(F)F)cc2)cc1 [Compound 117, 2-{4-[(9-aza-3-{bis[4-(trifluoromethyl)phenyl]methylene}bicyclo[3.3.1]non-9-yl)methyl]phenoxy}pyridine] | 100% | 100% |  | 
12 | CCn1nnc(-c2ccc(CN3CCC(C(OC(=O)Nc4ccc(C(F)(F)F)cc4)c4ccc(C(F)(F)F)cc4)CC3)cc2)n1 (centres unmarked) [Compound 289] | 100% | 100% |  | 
13 | CCn1nnc(-c2ccc(CN3CCC(C(OC(=O)Nc4cc(F)cc(F)c4)c4cc(F)cc(F)c4)CC3)cc2)n1 (centres unmarked) [Compound 593] | 100% | 100% |  | 
14 | CCn1nnc(-c2ccc(CN3CCC(C(OC(=O)Nc4ccc(Oc5ccccc5)cc4)c4ccc(Oc5ccccc5)cc4)CC3)cc2)n1 (centres unmarked) [Compound 622] | 0% | 4% |  | 
15 | CC(C)OC(=O)Nc1ccc(CN2CCC(=C(c3ccc(Cl)c(F)c3)c3ccc(Cl)c(F)c3)CC2)cc1 [Compound 796] |  |  | 100% | 100%
16 | O=C(Nc1cc(F)ccc1F)OC(c1ccc(C(F)(F)F)cc1)C1CCN(Cc2ccc(Oc3ccccn3)cc2)CC1 (centres unmarked) [Compound 239] | 100% | 100% |  | 
17 | O=C(Nc1cc(F)cc(F)c1)OC(c1ccc(C(F)(F)F)cc1)C1CC[N+]([O-])(Cc2ccc(Oc3ccccn3)cc2)CC1 (centres unmarked) [Compound 397] | 100% | 100% |  | 
18 | COc1ccc(C(=C2CC[N+]([O-])(Cc3ccc(NC(=O)OC(C)C)cc3)CC2)c2ccc(OC)cc2)cc1 (centres unmarked) [Compound 835] |  |  | 0% | 80%
19 | CS(=O)(=O)Nc1ccc(CN2CCC(=C(c3ccc(C(F)(F)F)cc3)c3ccc(C(F)(F)F)cc3)CC2)cc1 [Compound 805] |  |  | 33% | 100%
20 | CCn1nnc(-c2ccc(CN3CCC(C(OC(=O)Nc4ccc(F)c(F)c4)c4ccc(OC)cc4)CC3)cc2)n1 (centres unmarked) [Compound 603] | 100% | 100% |  | 
21 | CCON=Cc1ccc(CN2CCC(C(OC(=O)Nc3cccc(F)c3)c3ccc(Cl)cc3)CC2)cc1 (centres unmarked) [Compound 524] | 100% | 100% |  | 

Row | Compound | Percent Mortality (surface-treated diet) | Percent Growth Inhibition (surface-treated diet) | Percent Mortality | Percent Growth Inhibition
22 | CCOC(=O)c1ccc(CN2CCC(=C(c3ccc(C(F)(F)F)cc3)c3ccc(C(F)(F)F)cc3)CC2)cc1 [Compound 50] | 67% | 96% |  | 
23 | O=C(Nc1cc(F)cc(F)c1)OC(c1ccc(C(F)(F)F)cc1)C1CCN(Cc2ccc(Oc3c(F)cccc3F)cc2)CC1 (centres unmarked) [Compound 548] | 100% | 100% |  | 
24 | Cn1nnc(-c2ccc(CN3CCC(C(NC(=O)Nc4cccc(F)c4)c4ccc(OC(F)(F)F)cc4)CC3)cc2)n1 (centres unmarked) [Compound 339] | 50% | 100% |  | 
25 | CCn1nnc(-c2ccc(CN3CCC(C(OC(=O)Nc4ccc(Cl)cc4)c4ccccc4Cl)CC3)cc2)n1 (centres unmarked) [Compound 567] | 100% | 100% |  | 
26 | FC(F)(F)c1ccc(C(Oc2ccc(Cl)nn2)C2CCN(Cc3ccc(Oc4ccccn4)cc3)CC2)cc1 (centres unmarked) [Compound 452] | 67% | 100% |  | 
27 | CCn1nnc(-c2ccc(CN3CCC(C(OC(=O)Nc4cc(F)cc(F)c4)c4cc(Cl)cc(Cl)c4)CC3)cc2)n1 (centres unmarked) [Compound 580] | 100% | 100% |  | 
28 | O=C(Nc1ccc(Cl)cc1)OC(c1ccc(C(F)(F)F)cc1)C1CCN(Cc2ccc(-c3ccccn3)cc2)CC1 (centres unmarked) [Compound 627] | 100% | 100% |  | 
29 | COc1cccc(NC(=O)OC(c2ccc(Cl)c(Cl)c2)C2CCN(Cc3ccc(Oc4ccccn4)cc3)CC2)c1 (centres unmarked) [Compound 648] |  | 100% |  | 
30 | O=C(Nc1cccc(C(F)(F)F)c1)OC(c1ccc(Cl)c(Cl)c1)C1CCN(Cc2ccc(Oc3ccccn3)cc2)CC1 (centres unmarked) [Compound 650] | 100% | 100% |  | 
31 | CCON=Cc1ccc(CN2CCC(C(OC(=O)Nc3cc(Cl)ccc3Cl)c3ccc(C(F)(F)F)cc3)CC2)cc1 (centres unmarked) [Compound 191] | 100% | 100% |  | 
32 | CC(C)OC(=O)Nc1ccc(CN2CCC(C(OC(=O)Nc3cccc(F)c3)c3cc(Cl)cc(Cl)c3)CC2)cc1 (centres unmarked) [Compound 509] | 100% | 100% |  | 
33 | CCn1nnc(-c2ccc(CN3CCC(C(OC(=O)Nc4cc(F)cc(F)c4)c4ccc(Cl)c(Cl)c4)CC3)cc2)n1 (centres unmarked) [Compound 575] | 100% | 100% |  | 
34 | O=C(Nc1cc(F)cc(F)c1)OC(c1ccc(C(F)(F)F)cc1)C1CC[N+]([O-])(Cc2ccc(Oc3c(F)cccc3F)cc2)CC1 (centres unmarked) [Compound 751] |  |  | 100% | 100%
35 | N#Cc1ccc(Oc2ccc(CN3CCC(C(OC(=O)Nc4cc(F)cc(F)c4)c4ccc(OC(F)(F)F)cc4)CC3)cc2)nc1 (centres unmarked) [Compound 711] |  |  | 100% | 100%
36 | O=C(Nc1ccc(OC(F)F)cc1)OC(c1ccc(C(F)(F)F)cc1)C1CCN(Cc2ccc(Oc3ccccn3)cc2)CC1 (centres unmarked) [Compound 701] |  |  | 100% | 100%
37 | CCn1nnc(-c2ccc(CN3CCC(C(OC(=O)Nc4cccc(C(F)(F)F)c4)c4ccc(Oc5ccccc5)cc4)CC3)cc2)n1 (centres unmarked) [Compound 620] | 0% | 29% |  | 
38 | O=C(Nc1c(Cl)cccc1Cl)OC(c1ccc(C(F)(F)F)cc1)C1CCN(Cc2ccc(Oc3ccccn3)cc2)CC1 (centres unmarked) [Compound 233] | 33% | 100% |  | 
39 | Cn1nnc(-c2ccc(CN3CCC(C(NC(=O)Nc4cccc(Cl)c4)c4ccc(OC(F)(F)F)cc4)CC3)cc2)n1 (centres unmarked) [Compound 335] | 100% | 100% |  | 
40 | CCON=Cc1ccc(CN2CCC(C(OC(=O)Nc3cc(F)cc(F)c3)c3ccc(OC(F)(F)F)cc3)CC2)cc1 (centres unmarked) [Compound 538] | 100% | 100% |  | 
41 | CCn1nnc(-c2ccc(CN3CCC(C(OC(=O)Nc4ccc(Cl)cc4)c4ccc(C)cc4)CC3)cc2)n1 (centres unmarked) [Compound 595] | 100% | 100% |  | 
42 | N#Cc1ccc(NC(=O)OC(c2ccc(C(F)(F)F)cc2)C2CCN(Cc3ccc(Oc4ccccn4)cc3)CC2)cn1 (centres unmarked) [Compound 446] | 17% | 100% |  | 
